These results are taken from PubChem BioAssay AID1117327 (Cheminformatics & Chemogenomics Research Group (CCRG), …, 2015).

Activity calls are given as the source filed them. No rule for the calls is given here.

The test relates to C2C12 + WNT3A conditioned medium, alkaline phosphatase. The experiment in a line: alkaline phosphatase induction in C2C12 cells, dose response, cell-based, WNT3A-conditioned medium (AID 1117327).
As for `Cc1ccc2nc(N)[nH]c(=O)c2c1Sc1ccncc1`, the IC50 is 0.244 µM.

With `COc1ccc2cc1Oc1ccc(cc1)C[C@H]1c3c(cc4c(c3Oc3cc5c(cc3OC)CCN(C)[C@@H]5C2)OCO4)CCN1C`, the IC50 was 2.05 µM.

Consider `CC[C@]1(O)C[C@H]2CN(CCc3c([nH]c4ccccc34)[C@@](C(=O)OC)(c3cc4c(cc3OC)N(C=O)[C@H]3[C@@](O)(C(=O)OC)[C@H](OC(C)=O)[C@]5(CC)C=CCN6CC[C@]43[C@@H]65)C2)C1`, for which the IC50 was 0.0051 µM.

Take `Cc1ccc2c(Br)cc(Br)c(O)c2n1`: the IC50 was > 20 µM (inactive).

Usually IC50 stands for the concentration needed to halve the response being measured.
